Experimental data published in paper PMC9421655, “Novel Antagonist of the Type 2 Lysophosphatidic Acid Receptor (LPA2), UCM-14216, Ameliorates Spinal Cord Injury in Mice” (Journal of Medicinal Chemistry, 2022).

Key:
LPA2 [1] = target: T1, LPA2 (Homo sapiens, UniProt Q9HBW0); assay: Ca2+ mobilization assay, antagonist activity at LPA2; type: cell-based; parameters: Emax: dose or concentration left out as unconfirmed; conditions: for IC50: antagonism of 10 μM LPA, mean ± s.e.m.
T1 construct: expressed in transfected cells
Description: (§1) Cells stably expressing the corresponding LPA1–3 receptor were grown as described previously.[18] Changes in intracellular calcium levels were measured by using the fluorescent calcium sensitive dye Fluo-4 NW (Invitrogen). RH7777 cells or B103 cells were plated on poly-D-lysine or collagen coated, respectively, black-wall clear-bottom 96-well plates (Corning) at a density of 50 000 cells/well and cultured overnight. The culture medium was then replaced with 100 μL of Fluo-4 NW dye loading solution containing 2.5 μM of probenecid and incubated for 30 min at 37 °C followed by an additional 30 min at rt. […] Fluorescence changes were registered in a FluoStar Optima instrument (BMG Labtech) at 525 nm using an excitation wavelength of 494 nm. […] The data presented are from two to four independent experiments carried out in triplicate or quadruplicate. Dose–response curves were generated and IC50 values calculated by nonlinear regression analysis using Prism software version 5 (GraphPad Software Inc., San Diego, CA, USA).
Figure S2. Dose response curves for compounds 13, 44, 53, 54, and 55. B103 cells stably expressing LPA2 receptor were incubated with different concentrations of the compound under study and […]
Curves were generated with PRISM software version 5 (GraphPad Software Inc, San Diego, CA, USA) using nonlinear regression analysis. Each data point corresponds to the mean±SEM of two to four independent experiments carried out in triplicate or quadruplicate.

LPA3 [2] = target: T2, LPA3 (Homo sapiens, UniProt Q9UBY5); assay: cell-based; conditions: for Emax (%) LPA3: maximum blockade of activation induced by 10 μM LPA (18:1) at 10 μM compound, N.E. = no effect at 10 μM
T2 sequence (Q9UBY5 1-353): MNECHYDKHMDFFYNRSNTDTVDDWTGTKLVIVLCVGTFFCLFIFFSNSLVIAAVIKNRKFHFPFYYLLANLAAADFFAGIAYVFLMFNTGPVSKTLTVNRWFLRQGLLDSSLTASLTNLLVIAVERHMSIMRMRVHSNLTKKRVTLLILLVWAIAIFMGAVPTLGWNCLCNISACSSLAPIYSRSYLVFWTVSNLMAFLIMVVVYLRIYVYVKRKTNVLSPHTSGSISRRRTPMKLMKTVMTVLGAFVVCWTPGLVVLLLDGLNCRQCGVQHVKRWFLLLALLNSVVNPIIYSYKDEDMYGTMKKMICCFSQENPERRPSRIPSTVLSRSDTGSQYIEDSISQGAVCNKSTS
Description: as §1

LPA1 [3] = target: T3, LPA1 (Homo sapiens, UniProt Q92633); assay: cell-based; conditions: maximum blockade of activation induced by 10 μM LPA (18:1) at 10 μM compound; N.E. = no effect at 10 μM
Description: as §1

LPA3 [4] = target: T2, LPA3; parameters: expressed in transfected cells; conditions: cited from earlier work
LPA1 [5] = target: T3, LPA1; parameters: expressed in transfected cells; conditions: cited from earlier work
LPA2 [6] = target: T1, LPA2; assay: Ca2+ mobilization assay, agonist activity at LPA2; type: cell-based; conditions: 10 μM compound
Description: The agonist activity at LPA2 receptors was determined at 10 μM concentration for all final compounds as previously described.[18]
Figure S1. Representative snapshots showing the lack of significant agonist activity of selected compounds. (A) 1; (B) 13; (C) 54; and (D) Ki16425. (E) Graphs show the agonist activity induced […]
stably expressing LPA2 receptor were plated on collagen-coated black-wall clear-bottom 96-well plates (Corning) at a density of 50000 cells/well and cultured overnight. The culture medium was then replaced with Fluo-4 NW dye loading solution containing 2.5 µM of probenecid and incubated […]
for 30 minutes at 37 °C followed by an additional 30 minutes at rt. Fluorescence changes were registered in a FluoStar Optima instrument (BMG Labtech) at 525 nm using an excitation wavelength of 494 nm. Each well was monitored for 240 s. 20 µL of the test compound from a 6x stock solution in assay buffer were added after 120 s of starting the measurement. Ca2+ transient increase was quantified by calculating the difference between maximum and baseline values for each […]
Graphs shown are representative of two to three independent experiments.

T3 sequence (Q92633 whole entry, species assumed): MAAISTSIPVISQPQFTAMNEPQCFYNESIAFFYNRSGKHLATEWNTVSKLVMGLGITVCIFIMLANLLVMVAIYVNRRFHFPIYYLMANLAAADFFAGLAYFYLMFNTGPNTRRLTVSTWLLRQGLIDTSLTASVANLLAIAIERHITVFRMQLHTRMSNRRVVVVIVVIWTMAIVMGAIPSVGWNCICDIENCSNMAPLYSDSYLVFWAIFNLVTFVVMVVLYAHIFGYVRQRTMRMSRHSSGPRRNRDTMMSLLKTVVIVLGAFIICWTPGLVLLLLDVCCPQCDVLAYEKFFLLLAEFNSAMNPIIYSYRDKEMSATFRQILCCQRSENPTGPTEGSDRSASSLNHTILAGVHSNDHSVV
T1 sequence (Q9HBW0 whole entry, species assumed): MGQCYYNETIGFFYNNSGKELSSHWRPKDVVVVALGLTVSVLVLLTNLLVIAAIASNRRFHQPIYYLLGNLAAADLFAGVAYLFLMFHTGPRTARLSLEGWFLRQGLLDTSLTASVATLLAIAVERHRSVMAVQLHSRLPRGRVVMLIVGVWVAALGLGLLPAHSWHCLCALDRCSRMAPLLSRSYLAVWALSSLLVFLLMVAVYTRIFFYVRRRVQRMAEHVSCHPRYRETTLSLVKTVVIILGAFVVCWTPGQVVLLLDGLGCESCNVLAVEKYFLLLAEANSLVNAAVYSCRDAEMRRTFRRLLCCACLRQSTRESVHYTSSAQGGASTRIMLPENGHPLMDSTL

| Compound | melting point | Emax at 10 µM (LPA2 [1]) [%] | Emax (%) LPA3 (LPA3 [2]) | Emax (%) LPA1 (LPA1 [3]) | further results |
| --- | --- | --- | --- | --- | --- |
| Cc1[nH]nc(-c2ccc(OCC(=O)O)cc2O)c1Oc1ccc(Cl)cc1 [Compound 11, {4-[4-(4-Chlorophenoxy)-5-methyl-1H-pyrazol-3-yl]-3-hydroxyphenoxy}acetic Acid] | 121 to 123 °C | 60 ± 9 | N.E. | N.E. |  |
| Cc1[nH]nc(-c2ccc(O)cc2O)c1Oc1ccc(Cl)cc1Cl [Compound 42, 4-[4-(2,4-Dichlorophenoxy)-5-methyl-1H-pyrazol-3-yl]benzene-1,3-diol] | 206 to 208 °C | 16 ± 7 | N.E. | N.E. |  |
| {4-[4-(2,4-Dichlorophenoxy)-3-methyl-1,2-oxazol-3-yl]-3-hydroxyphenoxy}acetic Acid [Compound 49] |  |  | 71 ± 4% | N.E. | Emax (%) LPA2 (LPA2 [1]; maximum blockade of activation induced by 10 μM LPA (18:1) at 10 μM compound): 58 ± 3% |
| Cc1[nH]nc(-c2ccc(OCCCC(=O)O)cc2O)c1Oc1ccc(Cl)cc1Cl [Compound 37, 4-{4-[4-(2,4-Dichlorophenoxy)-5-methyl-1H-pyrazol-3-yl]-3-hydroxyphenoxy}butanoic Acid] |  | 43 ± 12 | N.E. | N.E. |  |
| Cc1[nH]nc(-c2ccc(OCC(=O)O)cc2O)c1Oc1cccc(Cl)c1 [Compound 10, {4-[4-(3-Chlorophenoxy)-5-methyl-1H-pyrazol-3-yl]-3-hydroxyphenoxy}acetic Acid] | > 240 °C (dec.) | 45 ± 8 | N.E. | N.E. |  |
| Cc1[nH]nc(-c2ccc(OCC(=O)O)cc2O)c1Oc1ccc(Cl)c(Cl)c1 [Compound 12, {4-[4-(3,4-Dichlorophenoxy)-5-methyl-1H-pyrazol-3-yl]-3-hydroxyphenoxy}acetic Acid] | > 240 °C (dec.) | 58 ± 3 | N.E. | N.E. |  |
| Cc1[nH]nc(-c2ccc(OCCC(=O)O)cc2O)c1Oc1ccc(Cl)cc1Cl [Compound 36, 3-{4-[4-(2,4-Dichlorophenoxy)-5-methyl-1H-pyrazol-3-yl]-3-hydroxyphenoxy}propanoic Acid] |  | 67 ± 7 | N.E. | N.E. |  |
| Cc1csc2c(N[C@@H](C)CN3CCN(S(=O)(=O)c4ccc(Cl)c(Cl)c4)CC3)ncnc12 [Compound C35] |  |  |  |  | IC50 (LPA3 [4]): > 50 µM; IC50 (LPA1 [5]): > 50000 nM |
| Cc1[nH]nc(-c2ccc(OCC(=O)O)cc2O)c1Oc1ccc(F)cc1F [Compound 53, {4-[4-(2,4-Difluorophenoxy)-5-methyl-1H-pyrazol-3-yl]-3-hydroxyphenoxy}acetic Acid] | > 210 °C (dec.) |  | N.E. | N.E. | Emax (LPA2 [1]): 65 ± 11%; IC50 (LPA2 [1]): 5.1 µM |
| O=C(O)/C=C/C(=O)Nc1ccc(Oc2cccc(Oc3ccc(NC(=O)/C=C/C(=O)O)cc3)c2)cc1 [Compound H2L5186303] |  |  |  |  | IC50 (LPA3 [4]): 27.3 µM; IC50 (LPA1 [5]): 1230 nM |
| Cc1[nH]nc(-c2ccc(OCC(N)=O)cc2O)c1Oc1ccc(Cl)cc1Cl [Compound 45, 2-{4-[4-(2,4-Dichlorophenoxy)-5-methyl-1H-pyrazol-3-yl]-3-hydroxyphenoxy}acetamide] |  | 44 ± 7 | N.E. | N.E. |  |
| Cc1c(Oc2ccc(Cl)cc2Cl)c(-c2ccc(OCC(=O)O)cc2O)nn1C [Compound 47, {4-[4-(2,4-Dichlorophenoxy)-1,5-dimethyl-1H-pyrazol-3-yl]-3-hydroxyphenoxy}acetic Acid] |  | 73 ± 10 |  | N.E. | Emax (LPA3 [2]; read-out: Emax (%) LPA3): 47 ± 7% |
| COc1ccc(-c2n[nH]c(C)c2Oc2ccc(Cl)cc2Cl)c(O)c1 [Compound 43, 2-[4-(2,4-Dichlorophenoxy)-5-methyl-1H-pyrazol-3-yl]-5-methoxyphenol] | 220 to 222 °C | 9 ± 5 | N.E. | N.E. |  |
| Cc1[nH]nc(-c2ccc(OCC(=O)O)cc2O)c1Oc1ccccc1Cl [Compound 1] |  | 48 ± 9 | N.E. | N.E.^c | agonist activity at LPA2 receptor (LPA2 [6]): lack and absence of significant agonist activity |
| Cc1[nH]nc(-c2ccc(OCC(=O)O)cc2O)c1Oc1ccccc1 [Compound 3, [3-Hydroxy-4-(5-methyl-4-phenoxy-1H-pyrazol-3-yl)phenoxy]acetic Acid] | > 180 °C (dec.) | 20 ± 7 | N.E. | N.E. |  |
| Cc1[nH]nc(-c2ccc(OCc3nnn[nH]3)cc2O)c1Oc1ccc(F)cc1F [Compound 55] | > 210 °C (dec.) |  | N.E. | N.E. | Emax (LPA2 [1]): 77 ± 5% |
| O=C(O)COc1ccc(-c2cc[nH]n2)c(O)c1 [Compound 2, [3-Hydroxy-4-(1H-pyrazol-3-yl)phenoxy]acetic Acid] | 92 to 94 °C | 7 ± 3 |  |  |  |
| Cc1[nH]nc(-c2ccc(OCC(=O)O)cc2)c1Oc1ccc(Cl)cc1Cl [Compound 30, 4-(2,4-Dichlorophenoxy)-3-(4-carboxymethoxyphenyl)-5-methyl-1H-pyrazole] | 158 to 160 °C | 11 |  |  |  |
| COC(=O)COc1ccc(-c2n[nH]c(C)c2Oc2ccc(Cl)cc2Cl)c(O)c1 [Compound 44, Methyl {4-[4-(2,4-dichlorophenoxy)-5-methyl-1H-pyrazol-3-yl]-3-hydroxyphenoxy} Acetate] | > 210 °C (dec.) | 74 ± 7 | N.E. | N.E. | IC50 (LPA2 [1]): 11.6 µM |
| O=C(O)COc1ccc(-c2n[nH]cc2Oc2ccc(Cl)cc2Cl)c(O)c1 [Compound 48, {4-[4-(2,4-Dichlorophenoxy)-1H-pyrazol-3-yl]-3-hydroxyphenoxy}acetic Acid] |  | 35 ± 8 | N.E. | N.E. |  |
| Cc1[nH]nc(-c2ccc(OCCCCC(=O)O)cc2O)c1Oc1ccc(Cl)cc1Cl [Compound 38, 5-{4-[4-(2,4-Dichlorophenoxy)-5-methyl-1H-pyrazol-3-yl]-3-hydroxyphenoxy}pentanoic Acid] |  | 21 ± 8 | N.E. | N.E. |  |
